Patent US20140228312A1, “ANTIBIOTIC COMPOSITION AND ITS USES” (Agency for Science, Technology and Research, priority 2011, published 2014)

Columns and labels:
[1] = tested on: B. cereus; assay: MIC assay, antibiotic with or without DSF-family molecules; type: cell-based, Bacillus cereus; settings: for MIC of Gentamicin, Mean: gentamicin alone (MeOH control, no DSF-family molecule)
Procedure: (§1) Minimum inhibitory concentration (MIC) was determined according to the 2003 guidelines of Clinical and Laboratory Standards Institute (CLSI) using 96-well microtiter plates. The two-fold dilution series of antibacterial agents or antibiotics were prepared with distilled water, methanol, or dimethyl sulfoxide (DMSO). Overnight cultures of bacteria were inoculated at an OD600 of 0.025 in Luria-Bertani (LB) broth supplemented with the respective antibiotic in the absence or presence of DSF-family molecules (Table 1). One hundred microliters of inoculated culture were grown in each well at 37° C. with shaking at 150 rpm for 24 hours. MIC was defined as the lowest concentration of antibiotic in which bacterial growth in the well was not measureable by determination of the turbidity at 600 nm.

[2] = tested on: B. cereus; assay: Bacterial growth analysis (Bioscreen-C); type: cell-based, Bacillus cereus; settings: final concentration of 50 μM, no antibiotic
Procedure: (§2) Overnight bacterial cultures grown in LB broth was inoculated in the same medium to an OD600 of 0.025; the medium was supplemented with a respective antibiotic and DSF-family signals were added in a final concentration of 50 μM or otherwise indicated. Three hundred microliters of inoculated culture were grown in each well at 37° C. in a low intensity shaking model using the Bioscreen-C Automated Growth Curves Analysis System (OY Growth Curves AB Ltd, Finland).

[3] = tested on: B. thuringiensis; assay: MIC assay, antibiotic with or without DSF; type: cell-based, Bacillus thuringiensis; settings: DSF 50 μM
Procedure: as §1

[4] = tested on: M. smegmatis; assay: MIC assay, antibiotic with or without DSF; type: cell-based, Mycobacterium smegmatis; settings: DSF 50 μM
Procedure: as §1

[5] = tested on: P. aeruginosa strain PAO1; assay: Bacterial growth analysis (Bioscreen-C); type: cell-based, Pseudomonas aeruginosa
Procedure: as §2
P. aeruginosa is a major source of opportunistic infections in both immunocompromised individuals and cystic fibrosis patients (Bodey et al., 1983; Richards et al., 2000). It appeared to be less responsive to DSF than other tested bacterial pathogen in our preliminary MIC assay. We therefore used the Bioscreen-C Automated Growth Curves Analysis System to determine the synergistic effect of DSF with antibiotics. Gentamicin and kanamycin were added to the culture of P. aeruginosa strain PAO1 at a final concentration of 2 nM and 0.2 μM, respectively, in the absence and presence of 50 μM DSF.

[6] = tested on: S. aureus; assay: MIC assay, antibiotic with or without DSF; type: cell-based, Staphylococcus aureus; settings: DSF 50 μM
Procedure: as §1

[7] = tested on: N. subflava; assay: MIC assay, antibiotic with or without DSF; type: cell-based, Neisseria subflava; settings: DSF 50 μM
Procedure: as §1

[8] = 50 μM DSF-family molecule vs MeOH control

## CCCCC/C=C\C(=O)O [Compound C8]
[1]; [8]
  Fold Change of MIC of Ampicillin: 0
  Fold Change of MIC of Kanamycin: 2
  Fold Change of MIC of Rifampicin: 2
  Fold change of MIC of Gentamicin: 0

## CCCCCCC/C=C\C(=O)O [Compound C10]
[1]; [8]
  Fold Change of MIC of Ampicillin: 0
  Fold Change of MIC of Kanamycin: 4
  Fold Change of MIC of Rifampicin: 2.6
  Fold change of MIC of Gentamicin: 2

## CCCCCCCC/C=C\C(=O)O [Compound C11]
[1]; [8]
  Fold Change of MIC of Kanamycin: 16
  Fold Change of MIC of Rifampicin: 4
  Fold change of MIC of Gentamicin: 16

## CCCCCCCCC/C=C\C(=O)O [Compound C12]
[1]; [8]
  Fold Change of MIC of Ampicillin: 0
  Fold Change of MIC of Kanamycin: 4
  Fold Change of MIC of Rifampicin: 2.6
  Fold change of MIC of Gentamicin: 8
[2]
  effect on bacterial growth rate: did not affect the bacterial growth rate

## CCCCCCCCCC/C=C\C(=O)O [Compound C13]
[1]; 5 μM C13 vs MeOH
  Fold Change of MIC of Kanamycin: 2
  Fold change of MIC of Gentamicin: 0
[1]; 10 μM C13 vs MeOH
  Fold Change of MIC of Kanamycin: 2
  Fold change of MIC of Gentamicin: 2
[1]; 20 μM C13 vs MeOH
  Fold Change of MIC of Kanamycin: 8
  Fold change of MIC of Gentamicin: 4
[1]; 30 μM C13 vs MeOH
  Fold Change of MIC of Kanamycin: 8
  Fold change of MIC of Gentamicin: 8
[1]; 40 μM C13 vs MeOH
  Fold Change of MIC of Kanamycin: 16
  Fold change of MIC of Gentamicin: 21.3
[1]; 50 μM C13 vs MeOH
  Fold Change of MIC of Kanamycin: 16
  Fold change of MIC of Gentamicin: 32
[1]; [8]
  Fold Change of MIC of Ampicillin: 0
  Fold Change of MIC of Kanamycin: 16
  Fold Change of MIC of Rifampicin: 2.6
  Fold change of MIC of Gentamicin: 32
[2]
  effect on bacterial growth rate: did not affect the bacterial growth rate

## CCCCCCCCCCC/C=C\C(=O)O [Compound C14]
[1]; [8]
  Fold Change of MIC of Ampicillin: 0
  Fold Change of MIC of Kanamycin: 32
  Fold Change of MIC of Rifampicin: 2
  Fold change of MIC of Gentamicin: 32

## CCCCCCCCCCCC/C=C\C(=O)O [Compound C15]
[1]; 50 μM DSF-family molecule
  drug adjuvant with ampicillin: best drug adjuvant with ampicillin
[1]; [8]
  Fold Change of MIC of Kanamycin: 32
  Fold Change of MIC of Rifampicin: 4
  Fold change of MIC of Gentamicin: 128

## CCCCCCCCCCCC(=O)O [Compound S12]
[1]; [8]
  Fold Change of MIC of Ampicillin: 0
  Fold Change of MIC of Kanamycin: 8
  Fold Change of MIC of Rifampicin: 2
  Fold change of MIC of Gentamicin: 4

## CCCCC/C=C/C(=O)O [Compound T8]
[1]; [8]
  Fold Change of MIC of Ampicillin: 0
  Fold Change of MIC of Kanamycin: 2
  Fold Change of MIC of Rifampicin: 0
  Fold change of MIC of Gentamicin: 0

## CCCCCCC/C=C/C(=O)O [Compound T10]
[1]; [8]
  Fold Change of MIC of Ampicillin: 0
  Fold Change of MIC of Kanamycin: 4
  Fold Change of MIC of Rifampicin: 2
  Fold change of MIC of Gentamicin: 2

## CCCCCCCC/C=C/C(=O)O [Compound T11]
[1]; [8]
  Fold Change of MIC of Kanamycin: 8
  Fold Change of MIC of Rifampicin: 2.6
  Fold change of MIC of Gentamicin: 16

## CCCCCCCCC/C=C/C(=O)O [Compound T12]
[1]; [8]
  Fold Change of MIC of Ampicillin: 0
  Fold Change of MIC of Kanamycin: 16
  Fold Change of MIC of Rifampicin: 1.3
  Fold change of MIC of Gentamicin: 21.3

## CCCCCCCCCC/C=C/C(=O)O [Compound T13]
[1]; [8]
  Fold Change of MIC of Ampicillin: 0
  Fold Change of MIC of Kanamycin: 5.3
  Fold Change of MIC of Rifampicin: 2
  Fold change of MIC of Gentamicin: 8

## CCCCCCCCCCC/C=C/C(=O)O [Compound T14]
[1]; 50 μM DSF-family molecule
  synergistic activity with kanamycin: strongest synergistic activity
[1]; [8]
  Fold Change of MIC of Kanamycin: 64
  Fold Change of MIC of Rifampicin: 1.3
  Fold change of MIC of Gentamicin: 128

## CCCCCCCCCCCC/C=C/C(=O)O [Compound T15]
[1]; [8]
  Fold Change of MIC of Ampicillin: 0
  Fold Change of MIC of Kanamycin: 2
  Fold Change of MIC of Rifampicin: 2
  Fold change of MIC of Gentamicin: 0

## CC(C)CCCCCCC/C=C\C(=O)O [DSF, cis 11-methyl-2-dodecenoic acid]
[3]
  decrease of MIC of ampicillin: 75%
  decrease of MIC of gentamicin: 93.75%
  decrease of MIC of kanamycin: 93.75%
  decrease of MIC of rifampicin: 75%
[4]
  enhancement of susceptibility to gentamicin: 50%
  enhancement of susceptibility to kanamycin: 25%
  enhancement of susceptibility to trimethoprim: 50%
[1]; 5 μM DSF vs MeOH
  Fold Change of MIC of Kanamycin: 1.3
  Fold change of MIC of Gentamicin: 2
[1]; 10 μM DSF vs MeOH
  Fold Change of MIC of Kanamycin: 2
  Fold change of MIC of Gentamicin: 2
[1]; 20 μM DSF vs MeOH
  Fold Change of MIC of Kanamycin: 2
  Fold change of MIC of Gentamicin: 5.3
[1]; 30 μM DSF vs MeOH
  Fold Change of MIC of Kanamycin: 5.3
  Fold change of MIC of Gentamicin: 8
[1]; 40 μM DSF vs MeOH
  Fold Change of MIC of Kanamycin: 5.3
  Fold change of MIC of Gentamicin: 16
[1]; 50 μM DSF vs MeOH
  Fold Change of MIC of Kanamycin: 16
  Fold change of MIC of Gentamicin: 16
[1]; [8]
  Fold Change of MIC of Ampicillin: 0
  Fold Change of MIC of Kanamycin: 16
  Fold Change of MIC of Rifampicin: 2
  Fold change of MIC of Gentamicin: 16
[5]; 50 μM DSF + gentamicin 2 nM
  effect on susceptibility to gentamicin: enhanced the susceptibility
[5]; 50 μM DSF + gentamicin 2 nM vs gentamicin alone
  delay of bacterial growth: 6 h
[5]; 50 μM DSF + kanamycin 0.2 μM
  effect on susceptibility to kanamycin: enhanced the susceptibility
[5]; 50 μM DSF + kanamycin 0.2 μM vs kanamycin alone
  delay of bacterial growth: 8 h
[5]; 50 μM DSF, no antibiotic
  effect on growth rate: did not affect the growth rate
[6]
  reduction of MIC of ampicillin: 50%
  reduction of MIC of gentamicin: 50%
  reduction of MIC of kanamycin: 50%
[7]
  effect on MIC of ampicillin: did not affect
  effect on MIC of rifampicin: did not affect
  reduction of MIC of gentamicin: about 50%
  reduction of MIC of kanamycin: about 50%
[2]
  effect on bacterial growth rate: did not affect the bacterial growth rate

## NC[C@H]1O[C@H](O[C@H]2[C@H](O)[C@@H](O[C@H]3O[C@H](CO)[C@@H](O)[C@H](N)[C@H]3O)[C@H](N)C[C@@H]2N)[C@H](O)[C@@H](O)[C@@H]1O [Kanamycin, kanamycin, reference compound]
[5]; kanamycin 0.2 μM alone
  time of recovery of bacterial growth: 22 hour post inoculation

## gentamicin [reference compound]
[1]
  MIC of Gentamicin, Mean: 8 µg/mL
[1]; listed as gentamicin
  MIC of Gentamicin, Mean: 8.0 µg/mL
[5]; gentamicin 2 nM alone
  time of recovery of bacterial growth: 10 hour post inoculation
